The text below walks through data of ChEMBL document CHEMBL4715815, “Design, synthesis and biological evaluation of 7H-pyrrolo[2,3-d]pyrimidin-4-amine derivatives as selective Btk inhibitors with improved pharmacokinetic properties for the treatment of rheumatoid arthritis” (Eur J Med Chem, 2018).

Active and inactive are the calls of the source. No cut-off for these calls is given here. Some results are limits rather than exact numbers.

The subject of one data set is HEK293. Briefly: Cytotoxicity against human HEK293 cells assessed as reduction in cell viability incubated for 72 hrs by MTT assay. It is filed as ADME, cell-based. Particulars: HEK293, 72 h. On the technique in general: Formazan colour is commonly taken as a measure of viable cells.
For data set [1], the target named is T1, Tyrosine-protein kinase BTK (Homo sapiens, UniProt Q06187). Kind of data set: Inhibition of BTK in human Raji cells assessed as reduction in BTK Y223 phosphorylation incubated for 1 hr by Western blot analysis. It is filed as cell-based. The following applies: dose 0.03-10 µM. Background: A western blot detects proteins with antibodies after separation by electrophoresis.
T1 sequence (Q06187 whole entry): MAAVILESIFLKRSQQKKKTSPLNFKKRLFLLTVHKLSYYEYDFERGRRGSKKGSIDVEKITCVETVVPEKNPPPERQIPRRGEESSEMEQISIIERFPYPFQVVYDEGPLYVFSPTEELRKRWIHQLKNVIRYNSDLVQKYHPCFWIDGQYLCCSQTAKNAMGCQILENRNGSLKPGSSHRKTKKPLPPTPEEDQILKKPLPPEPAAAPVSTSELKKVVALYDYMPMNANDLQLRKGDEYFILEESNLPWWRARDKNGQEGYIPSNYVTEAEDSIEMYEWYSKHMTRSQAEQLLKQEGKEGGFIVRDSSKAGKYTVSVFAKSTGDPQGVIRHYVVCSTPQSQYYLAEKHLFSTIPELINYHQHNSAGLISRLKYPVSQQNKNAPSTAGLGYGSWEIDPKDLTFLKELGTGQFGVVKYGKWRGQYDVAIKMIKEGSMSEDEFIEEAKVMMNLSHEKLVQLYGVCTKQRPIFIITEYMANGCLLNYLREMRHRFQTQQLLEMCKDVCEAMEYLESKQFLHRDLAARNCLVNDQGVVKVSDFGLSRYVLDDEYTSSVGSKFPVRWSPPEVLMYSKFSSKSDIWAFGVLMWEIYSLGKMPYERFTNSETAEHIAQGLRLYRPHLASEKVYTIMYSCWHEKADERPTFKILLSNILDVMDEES

In data set [2] the target is T1, Tyrosine-protein kinase BTK. Kind of data set: Inhibition of BTK in human U2932 cells assessed as reduction in PLCgamma2 Y1217 phosphorylation at 0.03 to 10 uM incubated for 1 hr by Western blot analysis. It is filed as cell-based. Particulars: dose 0.03-10 µM.
Data set [3] can be described thus: AUC (0 to t) in Sprague-Dawley rat at 3 mg/kg, iv measured up to 24 hrs by LC-MS/MS analysis. It is filed as ADME, organism-based. The arrangement: route intravenous, dose 3 mg/kg, time <=24. The following applies: in vivo.
Data set [4] is described as follows: Clearance in Sprague-Dawley rat at 3 mg/kg, po measured up to 24 hrs by LC-MS/MS analysis. It is filed as ADME, organism-based. Particulars: in vivo.
A short description of data set [5]: Oral bioavailability in Sprague-Dawley rat at 3 mg/kg measured up to 24 hrs by LC-MS/MS analysis. It is filed as ADME, organism-based. The following applies: in vivo.
The subject of a further data set is Mus musculus. Kind of data set: Antiarthritic activity in DBA/1J mouse model of collagen-induced arthritis assessed as reduction in paw thickness at 20 mg/kg, po administered for 30 days and measured on day 30. It counts as functional, organism-based. Particulars: time 30.0 day.
For data set [6], the target named is Dual specificity mitogen-activated protein kinase kinase 2 (Homo sapiens, UniProt P36507). Kind of data set: Inhibition of MEK2 (unknown origin).
Chain of Dual specificity mitogen-activated protein kinase kinase 2 (P36507 whole entry): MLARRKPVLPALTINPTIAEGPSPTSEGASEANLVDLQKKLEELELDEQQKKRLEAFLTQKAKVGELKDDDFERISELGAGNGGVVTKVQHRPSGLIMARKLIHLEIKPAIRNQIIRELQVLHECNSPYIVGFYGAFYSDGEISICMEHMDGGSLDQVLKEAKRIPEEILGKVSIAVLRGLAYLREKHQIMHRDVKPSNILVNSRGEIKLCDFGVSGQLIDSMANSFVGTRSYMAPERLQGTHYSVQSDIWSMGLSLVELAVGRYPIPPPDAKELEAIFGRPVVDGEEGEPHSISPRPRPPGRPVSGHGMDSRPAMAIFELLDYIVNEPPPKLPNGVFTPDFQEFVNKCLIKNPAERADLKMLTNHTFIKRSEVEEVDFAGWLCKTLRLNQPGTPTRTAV
Data set [7] concerns the target Serine/threonine-protein kinase mTOR (Homo sapiens, UniProt P42345). Briefly: Inhibition of mTOR (unknown origin).
Data set [8] has as its target Mitogen-activated protein kinase kinase kinase 7 (Homo sapiens, UniProt O43318). Briefly: Inhibition of recombinant human TAK1 using Ulight-FLGFTYVAP as substrate incubate for 90 mins by LANCE assay. A general note: Time-resolved FRET reads energy transfer from a long-lived donor to a nearby acceptor.
The target in data set [9] is BDNF/NT-3 growth factors receptor (Homo sapiens, UniProt Q16620). Briefly: Inhibition of recombinant human TRKb using Ulight-Poly GAT[EAY(1:1:1)]n as substrate incubate for 10 mins by LANCE assay.
Chain of BDNF/NT-3 growth factors receptor (Q16620 whole entry): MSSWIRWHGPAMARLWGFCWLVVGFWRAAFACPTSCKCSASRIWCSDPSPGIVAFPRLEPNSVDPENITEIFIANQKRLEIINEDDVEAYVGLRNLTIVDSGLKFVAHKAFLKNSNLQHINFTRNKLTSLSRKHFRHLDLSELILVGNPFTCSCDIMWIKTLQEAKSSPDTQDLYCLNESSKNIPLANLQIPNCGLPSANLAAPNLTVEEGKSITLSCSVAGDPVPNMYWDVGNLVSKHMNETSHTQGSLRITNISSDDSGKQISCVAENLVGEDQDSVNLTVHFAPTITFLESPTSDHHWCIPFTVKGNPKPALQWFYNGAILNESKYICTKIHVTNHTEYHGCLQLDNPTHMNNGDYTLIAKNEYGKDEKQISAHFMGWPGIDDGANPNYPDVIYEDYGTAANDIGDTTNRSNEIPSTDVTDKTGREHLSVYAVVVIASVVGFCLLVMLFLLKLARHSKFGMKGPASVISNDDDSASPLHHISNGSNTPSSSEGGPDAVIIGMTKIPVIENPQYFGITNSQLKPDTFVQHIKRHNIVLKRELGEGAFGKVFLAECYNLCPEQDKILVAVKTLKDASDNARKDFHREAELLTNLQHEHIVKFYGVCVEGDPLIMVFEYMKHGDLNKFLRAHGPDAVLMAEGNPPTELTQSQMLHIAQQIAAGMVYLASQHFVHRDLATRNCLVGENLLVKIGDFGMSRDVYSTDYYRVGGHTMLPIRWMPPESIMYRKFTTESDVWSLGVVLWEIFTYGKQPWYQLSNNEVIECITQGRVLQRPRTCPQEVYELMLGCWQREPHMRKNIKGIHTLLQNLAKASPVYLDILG
Data set [10] in a line: Toxicity in BALB/c mouse assessed as normal behavior at 2 g/kg, po measured after 7 days of administration. Particulars: in vivo, 168 h.
Data set [11] is described as follows: Toxicity in BALB/c mouse assessed as effect on liver at 2 g/kg, po measured after 7 days of administration by histopathological analysis. The following applies: in vivo, 168 h.
Data set [12] is described as follows: Toxicity in BALB/c mouse assessed as effect on spleen at 2 g/kg, po measured after 7 days of administration by histopathological analysis. The following applies: in vivo, 168 h.

Chain of Mitogen-activated protein kinase kinase kinase 7 (O43318 whole entry): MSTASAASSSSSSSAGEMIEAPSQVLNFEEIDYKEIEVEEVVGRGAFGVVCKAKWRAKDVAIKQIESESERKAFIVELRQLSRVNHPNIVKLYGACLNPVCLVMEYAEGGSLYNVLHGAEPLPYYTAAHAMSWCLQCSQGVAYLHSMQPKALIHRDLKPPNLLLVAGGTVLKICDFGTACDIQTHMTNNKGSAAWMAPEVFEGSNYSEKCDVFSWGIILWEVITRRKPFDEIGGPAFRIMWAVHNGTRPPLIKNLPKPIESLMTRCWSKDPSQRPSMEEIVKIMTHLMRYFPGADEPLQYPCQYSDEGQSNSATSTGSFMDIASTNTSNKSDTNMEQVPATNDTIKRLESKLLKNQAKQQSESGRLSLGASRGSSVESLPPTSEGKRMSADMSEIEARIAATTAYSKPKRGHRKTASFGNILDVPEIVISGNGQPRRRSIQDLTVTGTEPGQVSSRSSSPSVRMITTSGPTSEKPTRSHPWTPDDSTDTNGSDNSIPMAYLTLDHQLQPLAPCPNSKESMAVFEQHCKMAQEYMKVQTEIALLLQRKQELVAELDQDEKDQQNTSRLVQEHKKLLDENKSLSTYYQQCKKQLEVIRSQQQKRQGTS

Take `C=CC(=O)N1CCC(Cn2cc(-c3ccc4c(c3)OCO4)c3c(N)ncnc32)CC1`: the IC50 in the data set on HEK293 is 34.2 µM; in data set [6] it was over 10 µM; in data set [7], over 10 µM; in data set [8], over 10 µM; in [9], over 10 µM. The inhibition result in [1] is “Dose-dependent effect”. The inhibition result in data set [2] is “Active”. Also, in data set [3], the AUCt stood at 2522.28 ng·h/mL. The compound also had a CL/F in [4] of 45.8 mL/min/kg. Moreover, the bioavailability in [5] came out at 49.1%. In addition, the result with Mus musculus was Active. Besides, the Activity entry in data set [10], in data set [11] and in data set [12] was “Non-Toxic” each time.

As usually defined, the IC50 is the concentration that gives 50% inhibition. One may read the CL/F as clearance divided by bioavailability, as obtained after extravascular dosing. As a reminder, the bioavailability is dose-corrected exposure relative to a reference, in per cent. A high value points to good availability.
